Starred links: 1 amine or outer side, 2 acyl side, 3 side chain; linkers in the order of their positions; H or OH if unused. Non-standard residues stand in square brackets, D forms with d. Residues, ends and D or L forms follow the SMILES beside them. *: point of attachment. X1 = NC(=O)C[C@@H](C(=O)[*:2])N(C[C@@H](N)Cc1ccc(O)cc1)[*:1]; Propanoyl(3-indol-3-yl) = O=C(CCc1c[nH]c2ccccc12)*; X3 = O=C(CNC(=S)[C@H](Cc1ccccc1)N[*:1])[*:2]; Diphenylacetyl = O=C(C(c1ccccc1)c1ccccc1)*; Arg(Me) = CNC(=N)NCCC[C@H](N)C(=O)O; Tryptamide = c1ccc2c(CCN*)c[nH]c2c1; X2 = O=C(Cc1c[nH]c2ccccc12)*; Tos = Cc1ccc(S(=O)(=O)*)cc1; X7 = O=C(c1c[nH]c2ccccc12)*; CO = O=C([*:1])[*:2]; azaGly = NNC(=O)O
How the values were obtained:
[1] = target: T1, hOT7T175 (Homo sapiens, UniProt Q969F8, L364H); type: cell-based; details: hOT7T175/CHO, FLIPR, evaluation for 40 seconds after initiation of the reaction
T1 construct: expressed in transfected cells
T1 sequence (Q969F8 whole entry L364H): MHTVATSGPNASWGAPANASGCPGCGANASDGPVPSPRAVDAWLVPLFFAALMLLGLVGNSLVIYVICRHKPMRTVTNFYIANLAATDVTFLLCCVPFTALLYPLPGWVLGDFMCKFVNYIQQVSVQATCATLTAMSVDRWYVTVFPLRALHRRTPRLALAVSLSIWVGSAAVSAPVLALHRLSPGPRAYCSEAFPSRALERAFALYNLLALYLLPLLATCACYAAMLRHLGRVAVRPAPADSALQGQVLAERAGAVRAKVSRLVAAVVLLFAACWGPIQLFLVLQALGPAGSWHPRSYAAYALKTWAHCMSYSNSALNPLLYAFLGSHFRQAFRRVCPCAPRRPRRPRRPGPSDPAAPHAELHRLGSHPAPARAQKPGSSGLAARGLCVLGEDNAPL
Experimental: The intracellular Ca ion level-increasing activity was measured using FLIPR as in TEST EXAMPLE 2.

[2] = target: T2, hOT7T175 (Homo sapiens, UniProt Q969F8); assay: Intracellular Ca ion level-increasing activity using FLIPR (180 seconds; specific activity to Metastin (1-54)); type: cell-based; details: hOT7T175/CHO, change in intracellular calcium ion level for 180 seconds, Tables 21-23
T2 construct: expressed in transfected cells
T2 sequence (Q969F8 whole entry L364H): as above

Compound | Specific Act. (EC50/MS10 EC50) [1] | intracellular Ca ion level-increasing activity [specific activity to Metastin (1-54)] [2]
1-Azetidinecarbonyl-Phe-AzaGly-Leu-Arg(Me)-Trp-NH2 [Compound No. 468] | 5.2 | 1
2-(Indol-3-yl)ethylcarbamoyl-Phe-AzaGly-Leu-Arg(Me)-Trp-NH2 [Compound No. 369] | 4.8 | 2
2-Aminoethyl-Gly-D-Tyr-Asn-Trp-Asn-Ser-Phe-Gly-Leu-Arg(Me)-Phe-NH2 [Compound No. 375] | 5.2 | 2
3-Furancarbonyl-Phe-AzaGly-Leu-Arg(Me)-Trp-NH2 [Compound No. 454] | 2.5 | 6
3-Phenylpropionyl-Ala-Ser-Phe-AzaGly-Leu-Arg(Me)-Trp-NH2 [Compound No. 500] | 3.2 | 1
3-Phenylpropionyl-Asn-Ile-Phe-AzaGly-Leu-Arg(Me)-Trp-NH2 [Compound No. 506] | 1.3 | 1
3-Phenylpropionyl-Asn-Ser-Trp-AzaGly-Leu-Arg(Me)-Trp-NH2 [Compound No. 507] | 1.7 | 5
4-Aminobenzoyl-Phe-AzaGly-Leu-Arg(Me)-Trp-NH2 [Compound No. 472] | 3.4 | 3
4-Aminomethylbenzoyl-Phe-AzaGly-Leu-Arg(Me)-Trp-NH2 [Compound No. 473] | 4.2 | 3
4-Imidazolecarbonyl-Phe-AzaGly-Leu-Arg(Me)-Trp-NH2 [Compound No. 459] | 7.3 | 2
6-(Trifluoromethyl)nicotinoyl-Phe-AzaGly-Leu-Arg(Me)-Trp-NH2 [Compound No. 464] | 10.5 | 1
6-Chloronicotinoyl-Phe-AzaGly-Leu-Arg(Me)-Trp-NH2 [Compound No. 463] | 4.6 | 2
6-Methylnicotinoyl-Phe-AzaGly-Leu-Arg(Me)-Trp-NH2 [Compound No. 445] | 4.2 | 5
CNC(=N)NCCC[C@H](NC(=O)[C@H](CC(C)C)NC(=O)NNC(=O)[C@H](Cc1ccccc1)NC(=O)[C@H](CO)NC(=O)[C@H](CC(N)=O)NC(=O)CCc1c[nH]c2ccccc12)C(=O)N[C@@H](Cc1ccccc1)C(N)=O [Compound No. 260, 3-(3-Indolyl)propionyl-Asn-Ser-Phe-AzaGly-Leu-Arg(Me)-Phe-NH2] ({Propanoyl(3-indol-3-yl)}-NSF[azaGly]L[Arg(Me)]F-NH2) | 4.3 | 5
CNC(=N)NCCC[C@H](NC(=O)[C@H](CC(C)C)NC(=O)NNC(=O)[C@H](Cc1ccccc1)NC(=O)[C@H](CO)NC(=O)[C@H](CC(N)=O)NC(=O)c1c[nH]c2ccccc12)C(=O)N[C@@H](Cc1ccccc1)C(N)=O [Compound No. 265, Indole-3-carbonyl-Asn-Ser-Phe-AzaGly-Leu-Arg(Me)-Phe-NH2] (X7-NSF[azaGly]L[Arg(Me)]F-NH2) | 4.4 | 3
CNC(=N)NCCC[C@H](NC(=O)[C@H](CC(C)C)NC(=O)NNC(=O)[C@H](Cc1ccccc1)NC(=O)[C@H](CO)NC(=O)[C@H](CC(N)=O)NC(=O)Cc1c[nH]c2ccccc12)C(=O)N[C@@H](Cc1ccccc1)C(N)=O [Compound No. 266, Indol-3-acetyl-Asn-Ser-Phe-AzaGly-Leu-Arg(Me)-Phe-NH2] (X2-NSF[azaGly]L[Arg(Me)]F-NH2) | 5.4 | 2
CNC(=N)NCCC[C@H](NC(=O)[C@H](CC(C)C)NC(=O)NNC(=O)[C@H](Cc1ccccc1)NC(=O)[C@H](CO)NC(=O)[C@H](CC(N)=O)NC(=O)C(c1ccccc1)c1ccccc1)C(=O)N[C@@H](Cc1ccccc1)C(N)=O [Compound No. 268, Diphenylacetyl-Asn-Ser-Phe-AzaGly-Leu-Arg(Me)-Phe-NH2] (Diphenylacetyl-NSF[azaGly]L[Arg(Me)]F-NH2) | 4.5 | 1
CNC(=N)NCCC[C@H](NC(=O)[C@H](CC(C)C)NC(=O)NNC(=O)[C@H](Cc1ccccc1)NC(=O)[C@H](CO)NC(=O)[C@H](CC(N)=O)NC(=O)NCCc1c[nH]c2ccccc12)C(=O)N[C@@H](Cc1ccccc1)C(N)=O [Compound No. 279, 2-(indol-3-yl)ethylcarbamoyl-Asn-Ser-Phe-AzaGly-Leu-Arg(Me)-Phe-NH2] ({Tryptamide-CO}-NSF[azaGly]L[Arg(Me)]F-NH2) | 6.4 | 5

Compound | Specific Act. (EC50/MS10 EC50) [1] | intracellular Ca ion level-increasing activity [specific activity to Metastin (1-54)] [2]
CC(C)C[C@H](NC(=O)CNC(=O)[C@H](Cc1ccccc1)NC(=O)[C@H](CO)NC(=O)[C@H](CC(N)=O)NC(=O)[C@H](Cc1c[nH]c2ccccc12)NC(=O)[C@H](CC(N)=O)NC[C@@H](N)Cc1ccc(O)cc1)C(=O)N[C@@H](CCCNC(=N)N)C(=O)N[C@@H](Cc1ccccc1)C(N)=O [Compound No. 294] (H-[X1]WNSFGLRF-NH2) | 0.7 | 10
CNC(=N)NCCC[C@H](NC(=O)[C@H](CC(C)C)NC(=O)CNC(=S)[C@H](Cc1ccccc1)NC(=O)[C@H](CO)NC(=O)[C@H](CC(N)=O)NC(=O)[C@H](Cc1c[nH]c2ccccc12)NC(=O)[C@H](CC(N)=O)NC(=O)[C@H](N)Cc1ccc(O)cc1)C(=O)N[C@@H](Cc1ccccc1)C(N)=O [Compound No. 296, D-Tyr-Asn-Trp-Asn-Ser-PheΨ(CSNH)Gly-Leu-Arg(Me)-Phe-NH2] (H-[dY]NWNS[X3]L[Arg(Me)]F-NH2) | 5.2 | 3
CNC(=N)NCCC[C@H](NC(=O)[C@H](CC(C)C)NC(=O)NNC(=O)[C@H](Cc1ccccc1)NC(=O)[C@@H](NC(=O)[C@H](CC(N)=O)NC(=O)[C@H](Cc1c[nH]c2ccccc12)NC(=O)[C@H](CC(N)=O)NC(=O)[C@H](N)Cc1ccc(O)cc1)[C@@H](C)O)C(=O)N[C@@H](Cc1ccccc1)C(N)=O [Compound No. 297, D-Tyr-Asn-Trp-Asn-Thr-Phe-AzaGly-Leu-Arg(Me)-Phe-NH2] (H-[dY]NWNTF[azaGly]L[Arg(Me)]F-NH2) | 5.5 | 1
Dibenzylaminocarbamoyl-AzaGly-Leu-Arg(Me)-Trp-NH2 [Compound No. 428] | – | 1/10
Dibenzylaminocarbamoylacetyl-Leu-Arg(Me)-Trp-NH2 [Compound No. 434] | – | 1/10
Indole-3-acetyl-Phe-AzaGly-Leu-Arg(Me)-Phe-NH2 [Compound No. 345] | – | 2
Indole-3-carbonyl-Phe-AzaGly-Leu-Arg(Me)-Phe-NH2 [Compound No. 344] | – | ½
Methylthiocarbamoyl-Sar-D-Tyr-Asn-Trp-Asn-Ser-Phe-Gly-Leu-Arg(Me)-Phe-NH2 [Compound No. 397] | – | 5
Phenylacetyl-Phe-AzaGly-Leu-Arg(Me)-Trp-NH2 [Compound No. 440] | – | 1
Propionyl-Phe-AzaGly-Leu-Arg(Me)-Trp-NH2 [Compound No. 437] | – | 2
Pyrazinecarbonyl-Phe-AzaGly-Leu-Arg(Me)-Trp-NH2 [Compound No. 446] | – | 1
Tos-F[azaGly]L[Arg(Me)]F-NH2 [Compound No. 349] | – | ⅕
Tos-Phe-AzaGly-Leu-Arg(Me)-Trp-NH2 [Compound No. 368] | – | ½
Trifluoroacetyl-Phe-AzaGly-Leu-Arg(Me)-Trp-NH2 [Compound No. 448] | – | 3
Z-Phe-AzaGly-Leu-Arg(Me)-Trp-NH2 [Compound No. 367] | – | ⅕
n-Hexanoyl-Phe-AzaGly-Leu-Arg(Me)-Phe-NH2 [Compound No. 347] | – | ½
n-Hexanoyl-Phe-AzaGly-Leu-Arg(Me)-Trp-NH2 [Compound No. 366] | – | ⅓

Reference: patent US8778871B2 (Takeda Pharmaceutical Company Limited, priority 2004, dated 2014)
